Data set [1] is described as follows: Phase I dose escalation. It is filed as in vivo.
The subject of data set [2] is primary CNS tumor. Description: MR diffusion and permeability perfusion imaging of tumor. Type of data set: in vivo, human.

The structures appear in SMILES notation.

Consider `COc1cc2c(Oc3ccc4[nH]c(C)cc4c3F)ncnc2cc1OCCCN1CCCC1` [cediranib, Cediranib], for which the MTD result in data set [1] (Stratum II (patients receiving EIACD), maximum dose tested 20mg/m^2/d) is “not achieved”. Also, the DLTs identified in data set [1] (human, in vivo) came out at 8. Besides, the “change in two dimensional mean permeability values” in data set [2] (baseline to course 1 day 7–14, p=0.0469) is recorded as “suggested a decrease from baseline”. Besides, the “change in 2D permeability and 3D permeability values” in data set [2] (baseline to end of course 2, p=0.0078 each) is recorded as “suggested a decrease from baseline”.
